Laboratory results from US10792365B2, “Peptide derivative and use thereof” (Toray Industries, Inc., priority 2016, dated 2020).
Counter-ions that a name gives are not always drawn. Like-named read-outs stand apart in the source and are kept apart here.

How the values were obtained:
L1210 cells = assay: In vitro cytotoxicity of the peptide derivative (I), MTS method, L1210 cells; format: cell-based, mouse
Source text: (§1) The cytotoxicity of the peptide derivative (I) or a pharmaceutically acceptable salt thereof, or the conjugate including the peptide derivative (I) or a pharmaceutically acceptable salt thereof can be evaluated with an in vitro study. Examples of the in vitro studies include the trypan blue dye exclusion method, the lactate dehydrogenase (LDH) activity assay, [^3H]thymidine incorporation method, or propidium iodide nuclear stain that each measures the number of dead cells or surviving cells post treated with the compound; a method using dyes such as MTT, MTS, and WST (Current Protocol in Toxicology, (2000), 2.6.1-2.6.27); or a method in which the amount of ATP is measured using CellTiter-Glow (Promega Corporation) and the like, and preferably include the method in which the number of surviving cells post treated with the compound is measured by using the MTS method to determine values of the cytotoxicity at that time from 50% effect-concentration (EC50). Furthermore, in the evaluation of the cytotoxicity of the conjugate including the peptide derivative (I) or a pharmaceutically acceptable salt thereof, preferred method is the one that for a certain time, cells are treated with a medium containing the compound, the cells are then transferred to a medium not containing the compound, and the number of surviving cells are measured after cultivation for additional certain time (Bioconjugate Chemistry., 2014; 25: pp. 560-568). For the in vitro studies, human ovarian cancer cell SKOV-3 cells, human alveolar basement epithelial gland cancer cell A549 cells, mouse lymphocytic leukocyte L1210 cells and the like are used.

SKOV-3 cells = assay: In vitro cytotoxicity of the peptide derivative (I), MTS method, SKOV-3 cells; format: cell-based, human
Source text: as §1

A549 cells = assay: In vitro cytotoxicity of the peptide derivative (I), MTS method, A549 cells; format: cell-based, human
Source text: as §1

[1] = Parallel Artificial Membrane Permeation Assay (PAMPA), Pre-coated PAMPA Plate System (Corning); settings: for Membrane Permeability Coefficient: 200 μmol/L in PBS containing 20% of methanol, room temperature, five hours, N.D. = Acceptor side concentration less than lower limit of determinate quantity
Experimental: Reference Example 14, the Compound of Reference Example 16, and the Compound of Comparative Example was Evaluated by Using Pre-Coated PAMPA PlateSystem (Corning)
A frozen-stored, Pre-coated PAMPA Plate System was allowed to stand at room temperature for thirty minutes or more. Subsequently, 320 μL of the standard solution was added to a Donor side plate of Pre-coated PAMPA Plate System, and 200 μL of the PBS containing 20% of methanol was added to an Acceptor side plate. Both of the plates were set for the system, and the plates allowed to stand at room temperature for five hours. The reaction liquid in each well of the Donor side and Acceptor side plates was subjected to LC/MS analysis (hereinafter, LC/MS-3), and the concentration of the compounds in each well calculated.
Using the obtained concentration of the compounds in the reaction liquid in each well, the membrane permeability coefficients (Pe) (cm/s) were calculated by the following formula: Cequilibrium=[…] Pe=[−ln(1−CA/Cequilibrium)]/S×(1/VD+1/VA)×t Cequilibrium: Equilibrium concentration of the wells in the Donor side and Acceptor side plates CD: Concentration after five hours of the wells in the Donor side plate (mmol/L) VD: Volume of the standard solution added to the wells in the Donor side plate (0.32 mL) CA: Concentration after five hours of the wells in the Acceptor side plate (mmol/L) VA: Volume of the PBS containing 20% of methanol added to the wells in the Acceptor side plate (0.2 mL) S: Surface of the membrane (0.3 cm^2) t: Standing time 18,000 s (=5 hrs).

Row | Structure (SMILES) | EC50 (L1210 cells; Mus musculus) [nM] | EC50 (SKOV-3 cells; Homo sapiens, SK-OV-3) [nM] | EC50 (A549 cells; Homo sapiens) [nM] | Papp at 5 h, 200 μmol/L [1] [×10⁻⁶ cm/s] | Membrane Permeability Coefficient [1] | EC50 (L1210 cells) [nM] | EC50 (SKOV-3 cells) [nM] | EC50 (A549 cells) [nM]
1 | CC[C@H](C)[C@@H]([C@@H](CC(=O)N1CCC[C@H]1[C@H](OC)[C@@H](C)C(=O)N[C@@H](Cc1ccccc1)c1nc(C(=O)NCCNC(=O)CCS)cs1)OC)N(C)C(=O)[C@@H](NC(=O)[C@H](C(C)C)N(C)C)C(C)C [Reference Example 16, reference compound] | > 50 | > 10 | > 10 |  |  |  |  | 
2 | CC[C@H](C)[C@@H]([C@@H](CC(=O)N1CCC[C@H]1[C@H](OC)[C@@H](C)C(=O)N[C@@H](Cc1ccccc1)c1nc(C(=O)N(C)CCNC)cs1)OC)N(C)C(=O)[C@@H](NC(=O)[C@H](C(C)C)N(C)C)C(C)C [Example 6, 2-((S)-1-((2R,3R)-3-((S)-1-((3R,4S,5S)-4-((S)-2-((S)-2-(dimethylamino)-3-methylbutanamido)-N,3-dimethylbutanamido)-3-methoxy-5-methylheptanoyl)pyrrolidin-2-yl)-3-methoxy-2-methylpropanamido)-2-phenylethyl)-N-methyl-N-(2-(methylamine)ethyl)thiazole-4-carboxamide dihydrochloride] | 17.2 | 0.22 | 1.94 |  |  |  |  | 
3 | CC[C@H](C)[C@@H]([C@@H](CC(=O)N1CCC[C@H]1[C@H](OC)[C@@H](C)C(=O)N[C@@H](Cc1ccccc1)c1nc(C(=O)N(C)CCN)cs1)OC)N(C)C(=O)[C@@H](NC(=O)[C@H](C(C)C)N(C)C)C(C)C [Example 5, N-(2-aminoethyl)-2-((S)-1-((2R,3R)-3-((S)-1-((3R,4S,5S)-4-((S)-2-((S)-2-(dimethylamino)-3-methylbutanamido)-N,3-dimethylbutanamido)-3-methoxy-5-methylheptanoyl)pyrrolidin-2-yl)-3-methoxy-2-methylpropanamido)-2-phenylethyl)-N-methylthiazole-4-carboxamide dihydro chloride] | 11.7 | 0.56 | 0.81 | 0.01 |  |  |  | 
4 | CC[C@H](C)[C@@H]([C@@H](CC(=O)N1CCC[C@H]1[C@H](OC)[C@@H](C)C(=O)N[C@@H](Cc1ccccc1)c1nc(C(=O)N(C)CCO)cs1)OC)N(C)C(=O)[C@@H](NC(=O)[C@H](C(C)C)N(C)C)C(C)C [Example 9] | 8.52 | 1.5 | 1.64 | 0.08 |  |  |  | 
5 | CC[C@H](C)[C@@H]([C@@H](CC(=O)N1CCC[C@H]1[C@H](OC)[C@@H](C)C(=O)N[C@@H](Cc1ccccc1)c1nc(C(=O)OCCS)cs1)OC)N(C)C(=O)[C@@H](NC(=O)[C@H](C(C)C)N(C)C)C(C)C [Example 2, 2-mercaptoethyl 2-((S)-1-((2R,3R)-3-((S)-1-((3R,4S,5S)-4-((S)-2-((S)-2-(dimethylamino)-3-methylbutanamido)-N,3-dimethylbutanamido)-3-methoxy-5-methylheptanoyl)pyrrolidin-2-yl)-3-methoxy-2-methylpropanamido)-2-phenylethyl)thiazole-4-carboxylate] | 14.2 | 0.13 | 6.88 | 0.005 |  |  |  | 
6 | CC[C@H](C)[C@@H]([C@@H](CC(=O)N1CCC[C@H]1[C@H](OC)[C@@H](C)C(=O)N[C@@H](Cc1ccccc1)c1nc(C(=O)O)cs1)OC)N(C)C(=O)[C@@H](NC(=O)[C@H](C(C)C)N(C)C)C(C)C [Reference Example 1, 2-((S)-1-((2R,3R)-3-((S)-1-((3R,4S,5S)-4-((S)-2-((S)-2-(dimethylamino)-3-methylbutanamido)-N,3-dimethylbutanamido)-3-methoxy-5-methylheptanoyl)pyrrolidin-2-yl)-3-methoxy-2-methylpropanamido)-2-phenylethyl)thiazole-4-carboxylic acid, reference compound] | > 50 | > 10 | > 10 |  | 0.01 10^−6 cm/s |  |  | 
7 | CC[C@H](C)[C@@H]([C@@H](CC(=O)N1CCC[C@H]1[C@H](OC)[C@@H](C)C(=O)N[C@@H](Cc1ccccc1)c1nc(C(=O)NCCc2ccc(O)cc2)cs1)OC)N(C)C(=O)[C@@H](NC(=O)[C@H](C(C)C)N(C)C)C(C)C [Example 11, 2-((S)-1-((2R,3R)-3-((S)-1-((3R,4S,5S)-4-((S)-2-((S)-2-(dimethylamino)-3-methylbutanamido)-N,3-dimethylbutanamido)-3-methoxy-5-methylheptanoyl)pyrrolidin-2-yl)-3-methoxy-2-methylpropanamido)-2-phenylethyl)-N-(4-hydroxyphenethyl)thiazole-4-carboxamide] | 5.61 | 0.37 | 1.31 | 0.36 |  |  |  | 
8 | CC[C@H](C)[C@@H]([C@@H](CC(=O)N1CCC[C@H]1[C@H](OC)[C@@H](C)C(=O)N[C@@H](Cc1ccccc1)c1nc(C(=O)NCCO)cs1)OC)N(C)C(=O)[C@@H](NC(=O)[C@H](C(C)C)N(C)C)C(C)C [Example 7] | 28.4 | 4.67 | 1.74 | 0.02 |  |  |  | 
9 | CC[C@H](C)[C@@H]([C@@H](CC(=O)N1CCC[C@H]1[C@H](OC)[C@@H](C)C(=O)N[C@@H](Cc1ccccc1)c1nc(C(=O)NCCc2ccc(N)cc2)cs1)OC)N(C)C(=O)[C@@H](NC(=O)[C@H](C(C)C)N(C)C)C(C)C [Example 10] | 4.05 | 0.27 | 1.08 | 0.3 |  |  |  | 
10 | CCNC(=O)c1csc([C@H](Cc2ccccc2)NC(=O)[C@@H](C)[C@@H](OC)[C@@H]2CCCN2C(=O)C[C@@H](OC)[C@H]([C@@H](C)CC)N(C)C(=O)[C@@H](NC(=O)[C@H](C(C)C)N(C)C)C(C)C)n1 [Comparative Example, reference compound] |  |  |  |  | 1.68 10^−6 cm/s | 6.51 | 0.55 | 0.74
11 | CC[C@H](C)[C@@H]([C@@H](CC(=O)N1CCC[C@H]1[C@H](OC)[C@@H](C)C(=O)N[C@@H](Cc1ccccc1)c1nc(C(=O)N(C)CCS)cs1)OC)N(C)C(=O)[C@@H](NC(=O)[C@H](C(C)C)N(C)C)C(C)C [Example 3] | 6.96 | 1.05 | 1.22 | 1.14 |  |  |  | 
12 | CC[C@H](C)[C@@H]([C@@H](CC(=O)N1CCC[C@H]1[C@H](OC)[C@@H](C)C(=O)N[C@@H](Cc1ccccc1)c1nc(C(=O)OCCN)cs1)OC)N(C)C(=O)[C@@H](NC(=O)[C@H](C(C)C)N(C)C)C(C)C [Example 4] | 28.7 | 0.85 | 0.83 | 0.01 |  |  |  | 
13 | CC[C@H](C)[C@@H]([C@@H](CC(=O)N1CCC[C@H]1[C@H](OC)[C@@H](C)C(=O)N[C@@H](Cc1ccccc1)c1nc(C(=O)NCCNC)cs1)OC)N(C)C(=O)[C@@H](NC(=O)[C@H](C(C)C)N(C)C)C(C)C [Reference Example 14, 2-((S)-1-(((2S,3R)-3-((S)-1-((3R,4S,5S)-4-((S)-2-((S)-2-(dimethylamino)-3-methylbutanamido)-N,3-dimethylbutanamido)-3-methoxy-5-methylheptanoyl)pyrrolidin-2-yl)-3-methoxy-2-methylpropanamido)-2-phenylethyl)-N-(2-(methylamino)ethyl)thiazole-4-carboxamidedihydrochloride, reference compound] | 26.8 | > 10 | 9.85 | 0.004 |  |  |  | 
14 | CC[C@H](C)[C@@H]([C@@H](CC(=O)N1CCC[C@H]1[C@H](OC)[C@@H](C)C(=O)N[C@@H](Cc1ccccc1)c1nc(C(=O)NCCS)cs1)OC)N(C)C(=O)[C@@H](NC(=O)[C@H](C(C)C)N(C)C)C(C)C [Example 1] | 31.4 | 0.44 | 1.93 | 1.15 |  |  |  | 
